{"source": "patent US20150038541A1", "about": "“COMPOSITION AND METHODS FOR CELL MODULATION” (APOSIGNAL BIOSCIENCE LLC, priority 2012, published 2015)", "key": {"HeLa cells [1]": {"tested_on": "HeLa cells", "assay": "MTS cell viability of HeLa cells treated with anticancer drug with or without AS-7 (48 hours)", "type": "cell-based, human", "details": "for IC50: Homo sapiens, HeLa, 48 h, 48 hours, MTS, read-out: IC50 of bortezomib (loss of HeLa cell viability)", "description": "HeLa cells were seeded in a 96 well tissue culture plate (2000 cells per well). The compounds, 10 μM AS-7 and bortezomib (BioVision, Inc., Milpitas, Calif.) at the concentrations indicated in FIG. 1, were added the following day. AS-7 was prepared according to the Ugi reaction by combination of the four components: isocyanide (III), m-cyanobenzaldehyde (IV), 2-benzoylbenzoic acid (V), and histamine (VI) in refluxing methanol (Ref. http://www.occhem.com/synthesis/2561 2.html). The Medicinal Chemistry unit of Southern Research Institute (2000 Ninth Avenue South Birmingham, Ala. 35205) was contracted by a fee for service agreement to synthesize AS-7.\nAfter 48 hours, MTS (3-(4,5-dimethylthiazol-2-yl)-5-(3-carboxymethoxyphenyl)-2-(4-sulfophenyl)-2H-tetrazolium) was added and absorbance was measured at 490 nm. […] Values in FIG. 1 are relative to controls that contained only the vehicle in which the drugs were dissolved. Vehicle had no effect on cell viability. Error bars in FIG. 1 are not visible if they are smaller than the symbols. […]\n(§1) HeLa cells were seeded in a 96 well tissue culture plate (2000 cells per well). The compounds, 10 μM AS-7 and bortezomib at the concentrations indicated in FIG. 9 were added the following day. After 48 hours, MTS was added and absorbance was measured at 490 nm. […] Values are relative to controls that contained only the vehicle in which the drugs were dissolved. Vehicle had no effect on cell viability."}, "solid tumors": {"tested_on": "solid tumors", "details": "phase I and II clinical trials; single agent or in combination with several anticancer drugs; cited from earlier work"}, "caspase-3": {"tested_on": "caspase-3", "assay": "Caspase-3 activity measured in lysates of treated HeLa cells", "type": "cell-based", "details": "bortezomib treated HeLa cells; data not shown", "source_text": "(§2) The cytotoxic action of bortezomib is known to be mediated by proteasome inhibition and the induction of apoptosis."}, "proteasome": {"tested_on": "proteasome", "assay": "Proteasome activity measured in lysates of treated cells", "type": "cell-based", "details": "bortezomib treated HeLa cells; data not shown", "source_text": "as §2"}, "[2]": {"details": "cited from earlier work"}, "ovarian A2780 cells": {"tested_on": "ovarian A2780 cells", "assay": "Crystal violet cell viability of ovarian A2780 cells, bortezomib with or without AS-7 (72 hours)", "type": "cell-based, human", "details": "Homo sapiens, A2780, 72 h, 72 hours, crystal violet, read-out: IC50 of the cytotoxic effect of bortezomib towards ovarian A2780 cells", "description": "Ovarian tumor-derived cell lines, IGROV and A2780, were seeded in a 96 well tissue culture plate (2000 cells per well). The compounds, 10 μM AS-7 and bortezomib (BioVision, Inc., Milpitas, Calif.) at the concentrations indicated in the figures, were added the following day. AS-7 was prepared as described in Example I above. […] Values are relative to cells that with the vehicle in which the drugs were dissolved. Vehicle had no effect on cell viability. Error bars in FIG. 6 and FIG. 7 are not shown if they are smaller than the symbols."}, "Melanoma A2620 cells": {"tested_on": "Melanoma A2620 cells", "assay": "Crystal violet cell viability of melanoma A2620 cells, bortezomib with or without AS-7 (72 hours)", "type": "cell-based, human", "details": "Homo sapiens, 72 h, read-out: IC50 of bortezomib (loss of cell viability)", "description": "as §1, with “Melanoma A2620 cells” for “HeLa cells”, “FIG. 8” for “FIG. 9”, “day.” for “day. After 48 hours, MTS was added and absorbance was measured at 490 nm.”"}, "T47D cells": {"tested_on": "T47D cells", "assay": "MTS cell viability of breast cancer T47D cells, bortezomib with or without AS-7", "type": "cell-based, human", "details": "48 hours, MTS", "description": "(§3) Breast cancer derived cell lines, T47D and 159C, were seeded in a 96 well tissue culture plate (2000 cells per well). The significance of these two lines of breast cancer derived cell lines is that the T47D cells positive for three markers used to optimize the chemotherapeutic treatment, namely HER2 receptor, estrogen receptor, and progesterone receptor. By contrast to the T47D cells, the 159C cells are negative for the three markers. The compounds, 10 μM AS-7 and a range of bortezomib (BioVision, Inc., Milpitas, Calif.) concentrations were added the following day. After 48 hours, MTS was added and absorbance was measured at 490 nm."}, "159C cells": {"tested_on": "159C cells", "assay": "MTS cell viability of breast cancer 159C cells, bortezomib with or without AS-7", "type": "cell-based", "details": "48 hours, MTS", "description": "as §3"}, "HeLa cells [3]": {"tested_on": "HeLa cells", "assay": "MTS cell viability of HeLa cells treated with anticancer drug with or without AS-7 (48 hours)", "type": "cell-based, human", "details": "Homo sapiens, HeLa, 48 h, 48 hours, MTS, read-out: IC50 of carfilzomib (loss of HeLa cell viability)"}, "HeLa cells [4]": {"tested_on": "HeLa cells", "protocol": "HeLa cells were treated with 10 micrograms/ml cycloheximide alone or together with a range of TNF-alpha concentrations from 2.5 to 20 nanograms per ml. Following treatment, the cells were fixed with 4% paraformaldehyde (4° C. for 30 minutes), stained for 30 minutes with 0.5% crystal violet in 10% ethanol, and washed extensively with water to remove dye that was not bound to the cells. Cell bound crystal violet was solubilized with 10% acetic acid and absorbance was measured at 590 nm to quantitate cell growth. The time course data for each cell line were fit by nonlinear regression analysis to the equation for exponential growth using GraphPad Prism software."}}, "note": "Where two headings read alike, the source gives them in different places."}
{"compound": "CC(C)CC(C=CS(C)(=O)=O)NC(=O)C(CC(C)C)NC(=O)C(CC(C)C)NC(=O)Cc1cc(I)c(O)c([N+](=O)[O-])c1", "note": "(stereo not drawn) [NLVS, 4-hydroxy-5-iodo-3-nitrophenylacetyl-Leu-Leu-leucinal-vinyl sulfone, reference compound]", "values": [{"measurement": "HeLa cell viability at NLVS concentrations that by themselves had little effect", "setting": "HeLa cells [1]; in the presence of 10 μM AS-7", "result": "complete loss of viability"}]}
{"compound": "CC(C)C[C@H](NC(=O)[C@H](Cc1ccccc1)NC(=O)c1cnccn1)B(O)O", "note": "[bortezomib]", "values": [{"measurement": "IC50", "setting": "HeLa cells [1]; in the absence of AS-7", "result": "~8.8", "unit": "nM"}, {"measurement": "IC50", "setting": "HeLa cells [1]; in the presence of 10 μM AS-7", "result": "~2.5", "unit": "nM"}, {"measurement": "activity against solid tumors", "setting": "solid tumors", "result": "quite limited activity"}, {"measurement": "caspase-3 activity in cell lysates", "setting": "caspase-3", "result": "increased"}, {"measurement": "proteasome activity in cell lysates", "setting": "proteasome", "result": "markedly inhibited"}, {"measurement": "median time to improvement from the neurotoxicity", "setting": "[2]; after discontinuation of bortezomib treatment", "result": "three"}, {"measurement": "patients with Grades 1 and 2 peripheral neuropathy", "setting": "[2]; patients with newly diagnosed disease under bortezomib therapy", "result": "≤ 33", "unit": "%"}, {"measurement": "patients with grades 3 and 4 neurotoxicity", "setting": "[2]; patients with newly diagnosed disease", "result": "up to 18%"}, {"measurement": "patients with Grades 1 and 2 peripheral neuropathy", "setting": "[2]; patients with recurrent disease under bortezomib therapy", "result": "up to 75%"}, {"measurement": "patients with grades 3 and 4 neurotoxicity", "setting": "[2]; patients with recurrent disease", "result": "up to 30%"}, {"measurement": "IC50", "setting": "ovarian A2780 cells; in the absence of AS-7", "result": "~12.9", "unit": "nM"}, {"measurement": "IC50", "setting": "ovarian A2780 cells; in the presence of 10 μM AS-7", "result": "~4.2", "unit": "nM"}, {"measurement": "IC50", "setting": "Melanoma A2620 cells; in the absence of AS-7, 72 hours", "result": "~7.3", "unit": "nM"}, {"measurement": "IC50", "setting": "Melanoma A2620 cells; in the presence of 10 μM AS-7, 72 hours", "result": "~2.4", "unit": "nM"}, {"measurement": "sensitivity to the cytotoxic action of bortezomib by itself", "setting": "T47D cells", "result": "highly sensitive"}, {"measurement": "sensitivity to the cytotoxic action of bortezomib by itself", "setting": "159C cells", "result": "highly sensitive"}]}
{"compound": "CC(C)C[C@H](NC(=O)[C@H](CCc1ccccc1)NC(=O)CN1CCOCC1)C(=O)N[C@@H](Cc1ccccc1)C(=O)N[C@@H](CC(C)C)C(=O)[C@@]1(C)CO1", "note": "[carfilzomib]", "values": [{"measurement": "IC50", "setting": "HeLa cells [3]; in the absence of AS-7", "result": "~8.5", "unit": "nM"}, {"measurement": "IC50", "setting": "HeLa cells [3]; in the presence of 10 μM AS-7", "result": "~2.5", "unit": "nM"}]}
{"compound": "C[C@@H]1C[C@@H]([C@H](O)CC2CC(=O)NC(=O)C2)C(=O)[C@@H](C)C1", "note": "[cycloheximide, reference compound]", "values": [{"measurement": "effect on HeLa cell proliferation and cell death", "setting": "HeLa cells [4]; 10 micrograms/ml cycloheximide alone, 24 hour interval, absence or presence of AS-7", "result": "cytostatic, but not cytotoxic"}]}
{"compound": "TNF-alpha", "values": [{"measurement": "cytotoxicity to HeLa cells", "setting": "HeLa cells [4]; TNF-alpha in combination with cycloheximide, apparent within six hours", "result": "rapidly cytotoxic"}]}
